From ChEMBL document CHEMBL2086381, “Identification of 4,5-dihydro-4-hydroxygeldanamycins as shunt products of geldanamycin biosynthesis” (J Nat Prod, 2012)

System: HepG2
Assay: Cytotoxicity against human HepG2 cells
Type: functional, cell-based

Structure (SMILES)	IC50 [µM]
COC1=C2C[C@@H](C)C[C@H](OC)[C@H](O)[C@@H](C)/C=C(\C)[C@H](OC(N)=O)[C@@H](OC)C[C@H](O)/C=C(\C)C(=O)NC(=CC1=O)C2=O	10.5
COC1=C2C[C@@H](C)C[C@H](OC)[C@H](O)[C@@H](C)/C=C(\C)[C@H](OC(N)=O)[C@@H](OC)C[C@@H](O)/C=C(\C)C(=O)NC(=CC1=O)C2=O	10.8
COC1=C2C[C@@H](C)C[C@H](OC)[C@H](O)[C@@H](C)/C=C(\C)[C@H](OC(N)=O)[C@@H](OC)/C=C\C=C(/C)C(=O)NC(=CC1=O)C2=O [GELDANAMYCIN]	0.37
